Measurements taken from ChEMBL document CHEMBL3885881, “DrugMatrix”.

Species on record: Rattus norvegicus
Experiment: DrugMatrix - Regimen: Daily Repeat
Format: toxicity, organism-based, Sprague-Dawley
Design: regimen Daily Repeat, gender Male, age 6-8 weeks
Conditions: in vivo, po, route oral GAVAGE; for BASOPHIL / EOSINOPHIL / ERYTHROCYTE COUNT / HEMATOCRIT / HEMOGLOBIN / LEUKOCYTE COUNT / LYMPHOCYTE / MEAN CORPUSCULAR HEMOGLOBIN / MEAN CORPUSCULAR HEMOGLOBIN CONCENTRATION / MEAN CORPUSCULAR VOLUME / MONOCYTE / NEUTROPHIL / PLATELET COUNT / ABSOLUTE BASOPHIL / ABSOLUTE EOSINOPHIL / ABSOLUTE LYMPHOCYTE / ABSOLUTE MONOCYTE / ABSOLUTE SEGMENTED NEUTROPHIL / NUCLEATED RED BLOOD CELLS: tissue Blood; for ALANINE AMINOTRANSFERASE / ALBUMIN / ALKALINE PHOSPHATASE / ASPARTATE AMINOTRANSFERASE / BLOOD UREA NITROGEN / CARBON DIOXIDE / CHLORIDE / CHOLESTEROL / CREATINE PHOSPHOKINASE / CREATININE / GLUCOSE / LACTATE DEHYDROGENASE / LIPASE / PHOSPHORUS / POTASSIUM / SODIUM / TOTAL BILIRUBIN / TOTAL PROTEIN / URIC ACID: tissue Plasma
[1] = 0 mg/kg, 72 h, dose level Control, time 3 day, vehicle .5 % CMC
[2] = 0 mg/kg, 120 h, dose level Control, time 5 day, vehicle .5 % CMC
[3] = 0 mg/kg, […], dose level Control, time 14 day, vehicle .5 % CMC
[4] = […], 72 h, dose 1.7 mg/Kg, dose level Low, time 3 day
[5] = […], 120 h, dose 1.7 mg/Kg, dose level Low, time 5 day

## O=[N+]([O-])c1ccccc1 [NITROBENZENE]
[1]
  BASOPHIL: 0.62%
  EOSINOPHIL: 0.52%
  ERYTHROCYTE COUNT: 6.33 x10E6/uL
  HEMATOCRIT: 41.88%
  HEMOGLOBIN: 13.52 G/DL
  LEUKOCYTE COUNT: 11.39 x10E3/uL
  LYMPHOCYTE: 86.18%
  MEAN CORPUSCULAR HEMOGLOBIN: 21.35 pg
  MEAN CORPUSCULAR HEMOGLOBIN CONCENTRATION: 32.23 G/DL
  MEAN CORPUSCULAR VOLUME: 66.25 fL
  MONOCYTE: 1.93%
  NEUTROPHIL: 9.1%
  PLATELET COUNT: 1204.5 x10E3/uL
  ALANINE AMINOTRANSFERASE: 43 u/L
  ALBUMIN: 4.08 G/DL
  ALKALINE PHOSPHATASE: 426.33 u/L
  ASPARTATE AMINOTRANSFERASE: 72.5 u/L
  BLOOD UREA NITROGEN: 16.67 mg/dL
  CARBON DIOXIDE: 28.33 mmol/L
  CHLORIDE: 103.5 MEQ/L
  CHOLESTEROL: 78.83 mg/dL
  CREATINE PHOSPHOKINASE: 325.67 u/L
  CREATININE: 0.48 mg/dL
  GLUCOSE: 171.67 mg/dL
  LACTATE DEHYDROGENASE: 107.33 u/L
  LIPASE: 11.83 u/L
  PHOSPHORUS: 12.55 mg/dL
  POTASSIUM: 6.57 MEQ/L
  SODIUM: 145.67 MEQ/L
  TOTAL BILIRUBIN: 0.42 mg/dL
  TOTAL PROTEIN: 6.1 G/DL
  URIC ACID: 1.57 mg/dL
[2]
  BASOPHIL: 0.48%
  EOSINOPHIL: 0.67%
  ERYTHROCYTE COUNT: 6.69 x10E6/uL
  HEMATOCRIT: 44.17%
  HEMOGLOBIN: 13.78 G/DL
  LEUKOCYTE COUNT: 7.86 x10E3/uL
  LYMPHOCYTE: 85.9%
  MEAN CORPUSCULAR HEMOGLOBIN: 20.6 pg
  MEAN CORPUSCULAR HEMOGLOBIN CONCENTRATION: 31.25 G/DL
  MEAN CORPUSCULAR VOLUME: 65.9 fL
  MONOCYTE: 3.27%
  NEUTROPHIL: 8.67%
  PLATELET COUNT: 1182.33 x10E3/uL
  ALANINE AMINOTRANSFERASE: 37.5 u/L
  ALBUMIN: 4 G/DL
  ALKALINE PHOSPHATASE: 348.17 u/L
  ASPARTATE AMINOTRANSFERASE: 71.67 u/L
  BLOOD UREA NITROGEN: 13 mg/dL
  CARBON DIOXIDE: 27 mmol/L
  CHLORIDE: 104.67 MEQ/L
  CHOLESTEROL: 73.33 mg/dL
  CREATINE PHOSPHOKINASE: 211.33 u/L
  CREATININE: 0.23 mg/dL
  GLUCOSE: 155 mg/dL
  LACTATE DEHYDROGENASE: 133.83 u/L
  LIPASE: 11.17 u/L
  PHOSPHORUS: 14.53 mg/dL
  POTASSIUM: 6.65 MEQ/L
  SODIUM: 148.17 MEQ/L
  TOTAL BILIRUBIN: 0.28 mg/dL
  TOTAL PROTEIN: 6.22 G/DL
  URIC ACID: 1.57 mg/dL
[3]
  BASOPHIL: 0.97%
  EOSINOPHIL: 0.8%
  ERYTHROCYTE COUNT: 7.02 x10E6/uL
  HEMATOCRIT: 44.43%
  HEMOGLOBIN: 14.58 G/DL
  LEUKOCYTE COUNT: 16.49 x10E3/uL
  LYMPHOCYTE: 79.03%
  MEAN CORPUSCULAR HEMOGLOBIN: 20.85 pg
  MEAN CORPUSCULAR HEMOGLOBIN CONCENTRATION: 32.78 G/DL
  MEAN CORPUSCULAR VOLUME: 63.57 fL
  MONOCYTE: 1.9%
  NEUTROPHIL: 15.18%
  PLATELET COUNT: 1184.33 x10E3/uL
  ALANINE AMINOTRANSFERASE: 43 u/L
  ALBUMIN: 4.25 G/DL
  ALKALINE PHOSPHATASE: 409.67 u/L
  ASPARTATE AMINOTRANSFERASE: 84.17 u/L
  BLOOD UREA NITROGEN: 16 mg/dL
  CARBON DIOXIDE: 35.17 mmol/L
  CHLORIDE: 99.83 MEQ/L
  CHOLESTEROL: 68.67 mg/dL
  CREATINE PHOSPHOKINASE: 384.17 u/L
  CREATININE: 0.43 mg/dL
  GLUCOSE: 160 mg/dL
  LACTATE DEHYDROGENASE: 115.33 u/L
  LIPASE: 17.33 u/L
  PHOSPHORUS: 10.68 mg/dL
  POTASSIUM: 6.48 MEQ/L
  SODIUM: 148.17 MEQ/L
  TOTAL BILIRUBIN: 0.45 mg/dL
  TOTAL PROTEIN: 6.57 G/DL
  URIC ACID: 1.78 mg/dL

## C#C[C@]1(OC(C)=O)CC[C@H]2[C@@H]3CCC4=CC(=O)CC[C@@H]4[C@H]3CC[C@@]21C [NORETHINDRONE ACETATE]
[4]
  ABSOLUTE BASOPHIL: 0 CELLS/uL
  ABSOLUTE EOSINOPHIL: 0 CELLS/uL
  ABSOLUTE LYMPHOCYTE: 14146.67 CELLS/uL
  ABSOLUTE MONOCYTE: 167 CELLS/uL
  ABSOLUTE SEGMENTED NEUTROPHIL: 1486.33 CELLS/uL
  BASOPHIL: 0%
  EOSINOPHIL: 0%
  ERYTHROCYTE COUNT: 5.62 x10E6/uL
  HEMATOCRIT: 33.97%
  HEMOGLOBIN: 13.3 G/DL
  LEUKOCYTE COUNT: 15.8 x10E3/uL
  LYMPHOCYTE: 89.33%
  MEAN CORPUSCULAR HEMOGLOBIN: 23.7 pg
  MEAN CORPUSCULAR HEMOGLOBIN CONCENTRATION: 39.17 G/DL
  MEAN CORPUSCULAR VOLUME: 60.5 fL
  MONOCYTE: 1%
  NEUTROPHIL: 9.67%
  NUCLEATED RED BLOOD CELLS: 0 /100WBC
  PLATELET COUNT: 1255.67 x10E3/uL
  ALANINE AMINOTRANSFERASE: 61.67 u/L
  ALBUMIN: 4.07 G/DL
  ALKALINE PHOSPHATASE: 473.33 u/L
  ASPARTATE AMINOTRANSFERASE: 85 u/L
  BLOOD UREA NITROGEN: 14.33 mg/dL
  CARBON DIOXIDE: 26.67 mmol/L
  CHLORIDE: 99.67 MEQ/L
  CHOLESTEROL: 62.33 mg/dL
  CREATINE PHOSPHOKINASE: 351 u/L
  CREATININE: 0.17 mg/dL
  GLUCOSE: 158.33 mg/dL
  LACTATE DEHYDROGENASE: 371.33 u/L
  LIPASE: 10.33 u/L
  PHOSPHORUS: 12.87 mg/dL
  POTASSIUM: 6.54 MEQ/L
  SODIUM: 143.43 MEQ/L
  TOTAL BILIRUBIN: 0.17 mg/dL
  TOTAL PROTEIN: 5.73 G/DL
  URIC ACID: 1.37 mg/dL
[5]
  ABSOLUTE BASOPHIL: 0 CELLS/uL
  ABSOLUTE EOSINOPHIL: 62 CELLS/uL
  ABSOLUTE LYMPHOCYTE: 13760.33 CELLS/uL
  ABSOLUTE MONOCYTE: 100.67 CELLS/uL
  ABSOLUTE SEGMENTED NEUTROPHIL: 1110.33 CELLS/uL
  BASOPHIL: 0%
  EOSINOPHIL: 0.33%
  ERYTHROCYTE COUNT: 5.76 x10E6/uL
  HEMATOCRIT: 36.33%
  HEMOGLOBIN: 14.4 G/DL
  LEUKOCYTE COUNT: 15.03 x10E3/uL
  LYMPHOCYTE: 91.67%
  MEAN CORPUSCULAR HEMOGLOBIN: 25.07 pg
  MEAN CORPUSCULAR HEMOGLOBIN CONCENTRATION: 39.67 G/DL
  MEAN CORPUSCULAR VOLUME: 63.17 fL
  MONOCYTE: 0.67%
  NEUTROPHIL: 7.33%
  NUCLEATED RED BLOOD CELLS: 0 /100WBC
  PLATELET COUNT: 1087.33 x10E3/uL
  ALANINE AMINOTRANSFERASE: 65.33 u/L
  ALBUMIN: 4.13 G/DL
  ALKALINE PHOSPHATASE: 463.33 u/L
  ASPARTATE AMINOTRANSFERASE: 99 u/L
  BLOOD UREA NITROGEN: 16 mg/dL
  CARBON DIOXIDE: 28.67 mmol/L
  CHLORIDE: 98.67 MEQ/L
  CHOLESTEROL: 59.33 mg/dL
  CREATINE PHOSPHOKINASE: 362.33 u/L
  CREATININE: 0.2 mg/dL
  GLUCOSE: 142 mg/dL
  LACTATE DEHYDROGENASE: 548.33 u/L
  LIPASE: 10.33 u/L
  PHOSPHORUS: 12.73 mg/dL
  POTASSIUM: 6.67 MEQ/L
  SODIUM: 145.33 MEQ/L
  TOTAL BILIRUBIN: 0.23 mg/dL
  TOTAL PROTEIN: 5.93 G/DL
  URIC ACID: 1.63 mg/dL
